# Results taken from publication PMC5048394, “Development and substrate specificity screening of an in vivo biosensor for the detection of biomass derived aromatic chemical building blocks” (Chemical Communications (Cambridge, England), 2016).
# Read-outs that look alike come from different tables or passages of the source.
# How the values were obtained:
# PLC biosensor [1] = experiment: microbe, parasite or virus in culture; format: cell-based, E. coli BL21
# Procedure: (§1) Cells were centrifuged, washed and re-suspended with PBS buffer. The expression output was then analyzed by monitoring the fluorescence normalised to cell density (RFU/OD600) in a multimode plate reader (Methods, ESI ^†).
# (§2) The sequences containing the PLC, PPC and PferB promoters, a RBS, and a Hexa-Histidine tag, flanked by SphI/NdeI were synthetized (GeneART, ThermoFisher). The sequences were enzyme restricted with SphI/NdeI and cloned in pET44eGFP,2 upstream to the eGFP gene, replacing the T7 promoter region generating respectively, the pET44PLCeGFP, pET44PPCeGFP and pET44PferBeGFP vectors.
# (§3) The FerCA DNA sequence containing the ferA and ferC genes, individually flanked by a PLacI promoter and an rrn_B1 terminator, was synthetized by GeneARTTM (ThermoFisher).
# (§4) The construct was cloned in a p15 plasmid flanked by NaeI/KasI restriction sites generating […]
# (§5) the p15FerCA vector. […]
# (§6) Biosensors Performance and Screening Methods
# (§7) Reporter controls and the biosensor systems PLC, PPC and PferB were respectively generated by transformation of pET44PLCeGFP, pET44PPCeGFP and pET44PFerBeGFP vectors alone or with p15FerCA in BL21 and DH10B chemically competent E. coli cells. A single colony of each system was grown in LB media supplemented with antibiotics at 37 °C with shaking at 180rpm for 16 hours. Cultures were diluted (1:100) in fresh LB media with appropriate antibiotics, re-incubated at 37 °C with shaking until OD ~0.6 and transferred (450 μL) to multi- […]
# (§8) μM and 1000 μM. Induction plates were incubated at 37 °C, with shaking at 1000 RPM (Stuart microtitre plate shaker incubator) for 3 hours. Cells were harvested by centrifugation, washed twice and re-suspended with PBS buffer. Expression output was analyzed by monitoring the fluorescence normalised to cell density (RFU/OD) in a multimode plate reader. […]
# Compounds for screening were selected using cinnamic acid as a reference structure. The 58 selected compounds were tested with the PLC biosensor in E. coli BL21 cells. The substrate screening assays were performed using concentrations ranging from 0.32 μM to 1000 μM, as described for Ferulic acid. […]
# (§9) Data Processing and Curve Fitting
# (§10) Biosensor signal output (eGFP expression) was measured as Relative Fluorescence Units (RFU) and normalised to cell density (OD600). The background auto-fluorescence of E. coli was subtracted from RFU/OD and was normalised (%) to the pLC biosensor response curve to ferulic acid for each experiment. The normalised data was plotted and fitted with a dose-response curve using the Levenberg Marquardt logistic growth/sigmoidal algorithm, using the Origin 2015 (OriginLab, Northampton MA USA) program. The biomass screening data was […]
# [2] = system: ferA knock-out (AKO) PLC and PferB systems; experiment: FerA knock-out (AKO) system FA induction assay; format: cell-based; conditions: ferA knock-out (AKO) strains, E. coli BL21
# From the text: as §2, §3
# The construct was cloned in a p15 plasmid flanked by NaeI/KasI restriction sites generating the p15FerCA vector. The ferA gene was removed by restriction digestion of two XbaI flanking sites. The remaining backbone with ferC was re-circularized to originate the p15FerC vector, and the obtained plasmid was sequenced to confirm identity.
# as §6
# Reporter controls and the biosensor systems PLC, PPC and PferB were respectively generated by transformation of pET44PLCeGFP, pET44PPCeGFP and pET44PFerBeGFP vectors alone or with p15FerCA in BL21 and DH10B chemically competent E. coli cells. […] Expression output was analyzed by monitoring the fluorescence normalised to cell density (RFU/OD) in a multimode plate reader. […]
# PferB biosensor [3] = experiment: PferB biosensor eGFP expression (RFU/OD600) in E. coli BL21; format: cell-based
# Procedure: as §1, §2, §3, §4, §5, §6, §7, §8, §9, §10
# PPC biosensor [4] = experiment: PPC biosensor eGFP expression in E. coli K strain (DH10B, Top10F'); format: cell-based
# Procedure: as §1, §2, §3, §4, §5, §6, §7, §8, §9, §10
# PLC biosensor [5] = experiment: PLC biosensor eGFP expression in E. coli K strain (DH10B, Top10F'); format: cell-based
# Procedure: as §1, §2, §3, §4, §5, §6, §7, §8, §9, §10
# PPC biosensor [6] = experiment: PPC biosensor eGFP expression (RFU/OD600) in E. coli BL21; format: cell-based
# Procedure: as §1, §2, §3, §4, §5, §6, §7, §8, §9, §10
# PferB biosensor [7] = experiment: PferB biosensor eGFP expression in E. coli K strain (DH10B, Top10F'); format: cell-based
# Procedure: as §1, §2, §3, §4, §5, §6, §7, §8, §9, §10
# [8] = Escherichia coli, BL21, ferulic acid dose response, PLC biosensor, E. coli BL21
# [9] = Escherichia coli, BL21, substrate screening, PLC biosensor, E. coli BL21
# [10] = ferulic acid, PLC biosensor, E. coli BL21, text
# [11] = ferulic acid dose response, PferB biosensor, E. coli BL21
# [12] = ferulic acid dose response, PPC biosensor, Top10F' (DH10B)
# [13] = PLC biosensor, E. coli K strain (DH10B)
# [14] = ferulic acid dose response, PLC biosensor, Top10F' (DH10B)
# [15] = ferulic acid dose response, PPC biosensor, E. coli BL21
# [16] = ferulic acid dose response, PferB biosensor, Top10F' (DH10B)
smiles,measurement,setting,value
"COc1cc(/C=C/C(=O)O)ccc1O [compound 1, trans-Ferulic acid]",EC10,PLC biosensor [1]; [8],5.6 µM
same,EC50,PLC biosensor [1]; [8],20.9 ± 4.2 µM
same,EC90,PLC biosensor [1]; [8],77.4 µM
same,Emax,"PLC biosensor [1]; Escherichia coli, BL21, read-out: Induction",> 70%
same,maximal fold induction,"PLC biosensor [1]; Escherichia coli, BL21, read-out: Signal range (max/min), ferulic acid dose response, PLC biosensor, E. coli BL21",22.8
same,maximal fold induction,"PLC biosensor [1]; Escherichia coli, BL21, read-out: Signal range (max/min), substrate screening, PLC biosensor, E. coli BL21",26.2
same,EC10,PLC biosensor [1]; [9],3.9 µM
same,EC50,PLC biosensor [1]; [9],15.3 ± 0.9 µM
same,EC90,PLC biosensor [1]; [9],59.5 µM
same,Saturation concentration,"PLC biosensor [1]; ferulic acid dose response, PLC biosensor, E. coli BL21",≥ 100 µM
same,"De-repression (incomplete), % of the PLC reporter","PLC biosensor [1]; ferulic acid, PLC biosensor, E. coli BL21",~85%
same,Sensing range,PLC biosensor [1]; [10],13 fold
same,Signal range,PLC biosensor [1]; [10],~23 fold
same,Induction,"PLC biosensor [1]; substrate screening, PLC biosensor, E. coli BL21, 0.32–1000 μM","H (high output signals, and hence good efficacy (>70%))"
same,Signal read-out range,"PLC biosensor [1]; substrate screening, PLC biosensor, E. coli BL21, text",> 25 fold
same,De-repression phenotype upon addition to growth media,[2],lacked the de-repression phenotype
same,EC50,"PferB biosensor [3]; Escherichia coli, BL21",60.5 ± 2.3 µM
same,EC90,"PferB biosensor [3]; Escherichia coli, BL21",191 µM
same,EC10,PferB biosensor [3]; [11],19.2 µM
same,Ebasal (fitting curve),PferB biosensor [3]; [11],3.7 RFU/OD
same,Emax (fitting curve),PferB biosensor [3]; [11],17.0 RFU/OD
same,Sensing range (EC90/EC10),PferB biosensor [3]; [11],9.9
same,Signal range (max/min),PferB biosensor [3]; [11],5.0
same,p (fitting curve),PferB biosensor [3]; [11],1.9
same,De-repression,"PferB biosensor [3]; ferulic acid, PferB biosensor, E. coli BL21",effectively de-repressed
same,EC50,PPC biosensor [4]; Escherichia coli,10.4 µM
same,EC90,PPC biosensor [4]; Escherichia coli,33.3 µM
same,De-repression,"PPC biosensor [4]; PPC biosensor, E. coli K strain (DH10B)",complete de-repression
same,EC10,PPC biosensor [4]; [12],3.3 µM
same,Ebasal (fitting curve),PPC biosensor [4]; [12],4.7 RFU/OD
same,Emax (fitting curve),PPC biosensor [4]; [12],44.7 RFU/OD
same,Sensing range (EC90/EC10),PPC biosensor [4]; [12],10.2
same,Signal range (max/min),PPC biosensor [4]; [12],12.4
same,p (fitting curve),PPC biosensor [4]; [12],1.9
same,EC50,PLC biosensor [5]; Escherichia coli,22.8 ± 5.2 µM
same,EC90,PLC biosensor [5]; Escherichia coli,83 µM
same,De-repression,PLC biosensor [5]; [13],incomplete de-repression
same,Relative signal range,PLC biosensor [5]; [13],~19 fold
same,Sensing range (EC90/EC10),PLC biosensor [5]; [13],13 fold
same,EC10,PLC biosensor [5]; [14],6.3 µM
same,Ebasal (fitting curve),PLC biosensor [5]; [14],6.1 RFU/OD
same,Emax (fitting curve),PLC biosensor [5]; [14],100.0 RFU/OD
same,Sensing range (EC90/EC10),PLC biosensor [5]; [14],13.3
same,Signal range (max/min),PLC biosensor [5]; [14],19.2
same,p (fitting curve),PLC biosensor [5]; [14],1.7
same,EC50,"PPC biosensor [6]; Escherichia coli, BL21",11.2 ± 1.1 µM
same,EC90,"PPC biosensor [6]; Escherichia coli, BL21",38 µM
same,Concentration for complete de-repression,PPC biosensor [6]; [15],≥ 40 µM
same,EC10,PPC biosensor [6]; [15],3.3 µM
same,Ebasal (fitting curve),PPC biosensor [6]; [15],4.2 RFU/OD
same,Emax (fitting curve),PPC biosensor [6]; [15],46.6 RFU/OD
same,Sensing range (EC90/EC10),PPC biosensor [6]; [15],11.5
same,Signal range (max/min),PPC biosensor [6]; [15],10.4
same,p (fitting curve),PPC biosensor [6]; [15],1.8
same,EC50,PferB biosensor [7]; Escherichia coli,79.6 µM
same,EC90,PferB biosensor [7]; Escherichia coli,276 µM
same,De-repression,"PferB biosensor [7]; PferB biosensor, E. coli K strain (DH10B)",complete de-repression
same,EC10,PferB biosensor [7]; [16],22.9 µM
same,Ebasal (fitting curve),PferB biosensor [7]; [16],4.3 RFU/OD
same,Emax (fitting curve),PferB biosensor [7]; [16],20.5 RFU/OD
same,Sensing range (EC90/EC10),PferB biosensor [7]; [16],12.0
same,Signal range (max/min),PferB biosensor [7]; [16],4.7
same,p (fitting curve),PferB biosensor [7]; [16],1.8
